# Results published in patent US20220401439A1, “INTRANASAL PHARMACEUTICAL COMPOSITIONS OF CGRP INHIBITORS” (Biohaven Pharmaceutical Holding Company Ltd., priority 2019, published 2022).
# Marks after values point to notes of the source that are not given here.
# Test system: patients receiving acute treatment of migraine
# Assay: Phase 2/3 trial BHV3500-201 (Study 201), efficacy in acute treatment of migraine
# Assay type: in vivo, human
# [1] = 5 mg single dose, mITT subjects, Overall
# [2] = 5 mg single dose, mITT, Prophylactic migraine medication use: No
# [3] = 5 mg single dose, mITT, Prophylactic migraine medication use: Yes
# [4] = 10 mg single dose, mITT subjects, Overall
# [5] = 10 mg single dose, mITT, Prophylactic migraine medication use: No
# [6] = 10 mg single dose, mITT, Prophylactic migraine medication use: Yes
# [7] = 10 mg single intranasal dose, p < 0.05
# [8] = 20 mg single dose, mITT subjects, Overall
# [9] = 20 mg single dose, mITT, Prophylactic migraine medication use: No
# [10] = 20 mg single dose, mITT, Prophylactic migraine medication use: Yes
# [11] = 20 mg single intranasal dose, p < 0.05
# [12] = zavegepant 5 mg vs placebo, mITT, CMH weighting
# [13] = zavegepant 5 mg vs placebo, subjects with functional disability at onset, CMH weighting
# [14] = zavegepant 5 mg vs placebo, subjects with symptom present at onset, CMH weighting
# [15] = zavegepant 5 mg, mITT subjects with functional disability at on-study migraine attack onset
compound,measurement,setting,value
"Cc1cc(C[C@@H](NC(=O)N2CCC(c3cc4ccccc4[nH]c3=O)CC2)C(=O)N2CCN(C3CCN(C)CC3)CC2)cc2cn[nH]c12 [Zavegepant, (R)—N-(3-(7-methyl-1H-indazol-5-yl)-1-(4-(1-methylpiperidin-4-yl)piperazin-1-yl)-1-oxopropan-2-yl)-4-(2-oxo-1,2-dihydroquinolin-3-yl)piperidine-1-carboxamide]","Pain Relief at 15 Minutes Post-Dose, (%) of subjects",[1],(14.2) %
same,"Pain Relief at 15 Minutes Post-Dose, n/N",[1],55/387
same,"Pain Relief at 15 Minutes Post-Dose, Stratified percentage difference (BHV-3500-Placebo)","5 mg single dose, mITT subjects, Overall, CMH weighting",4.2%
same,"Pain Relief at 15 Minutes Post-Dose, (%) of subjects",[2],(14.7) %
same,"Pain Relief at 15 Minutes Post-Dose, Percentage difference (BHV-3500-Placebo)",[2],4.6%
same,"Pain Relief at 15 Minutes Post-Dose, n/N",[2],49/333
same,"Pain Relief at 15 Minutes Post-Dose, (%) of subjects",[3],(11.1) %
same,"Pain Relief at 15 Minutes Post-Dose, Percentage difference (BHV-3500-Placebo)",[3],1.9%
same,"Pain Relief at 15 Minutes Post-Dose, n/N",[3],8/54
same,2 Hour Endpoint Freedom from MBS (Most Bothersome Symptom),5 mg single intranasal dose,39.0%
same,2 Hour Endpoint Pain Freedom,5 mg single intranasal dose,19.6%
same,"Pain Relief at 15 Minutes Post-Dose, (%) of subjects",[4],(18.2) %
same,"Pain Relief at 15 Minutes Post-Dose, n/N",[4],71/331
same,"Pain Relief at 15 Minutes Post-Dose, Stratified percentage difference (BHV-3500-Placebo)","10 mg single dose, mITT subjects, Overall, CMH weighting",8.2%
same,"Pain Relief at 15 Minutes Post-Dose, (%) of subjects",[5],(17.3) %
same,"Pain Relief at 15 Minutes Post-Dose, Percentage difference (BHV-3500-Placebo)",[5],7.2%
same,"Pain Relief at 15 Minutes Post-Dose, n/N",[5],59/341
same,"Pain Relief at 15 Minutes Post-Dose, (%) of subjects",[6],(24.0) %
same,"Pain Relief at 15 Minutes Post-Dose, Percentage difference (BHV-3500-Placebo)",[6],14.7%
same,"Pain Relief at 15 Minutes Post-Dose, n/N",[6],12/50
same,2 Hour Endpoint Freedom from MBS (Most Bothersome Symptom),[7],41.9%*
same,2 Hour Endpoint Pain Freedom,[7],22.5%*
same,return to normal function,20 mg,as early as 30 minutes
same,"Pain Relief at 15 Minutes Post-Dose, (%) of subjects",[8],(14.7) %
same,"Pain Relief at 15 Minutes Post-Dose, n/N",[8],59/402
same,"Pain Relief at 15 Minutes Post-Dose, Stratified percentage difference (BHV-3500-Placebo)","20 mg single dose, mITT subjects, Overall, CMH weighting",4.7%
same,"Pain Relief at 15 Minutes Post-Dose, (%) of subjects",[9],(13.3) %
same,"Pain Relief at 15 Minutes Post-Dose, Percentage difference (BHV-3500-Placebo)",[9],3.2%
same,"Pain Relief at 15 Minutes Post-Dose, n/N",[9],46/345
same,"Pain Relief at 15 Minutes Post-Dose, (%) of subjects",[10],(22.3) %
same,"Pain Relief at 15 Minutes Post-Dose, Percentage difference (BHV-3500-Placebo)",[10],13.5%
same,"Pain Relief at 15 Minutes Post-Dose, n/N",[10],13/57
same,2 Hour Endpoint Freedom from MBS (Most Bothersome Symptom),[11],42.5%*
same,2 Hour Endpoint Pain Freedom,[11],23.1%*
same,onset of pain relief,"5, 10, and 20 mg single dose, stratified CMH tests, mITT subjects",pain relief as early as 15 minutes post-dose
same,durability of benefits (sustained pain freedom and pain relief 2 to 24 and 2 to 48 hours),"5, 10 and 20 mg (pain relief 2 to 48: 5 and 10 mg), nominal p<0.05",durable and sustained without rescue medication out to 48 hours
same,pain relief and return to normal function at 2 hours,10 and 20 mg doses,therapeutic benefits
same,comparison to placebo on co-primary endpoints of pain freedom and freedom from MBS at 2 hours,"10 and 20 mg, single dose, p<0.05",statistically superior
same,comparison to placebo on multiple secondary endpoints demonstrating early activity,nominal p<0.05,superior to placebo
same,"Pain relief at 2 hours postdose, n/N (%)","zavegepant 5 mg intranasal single dose, mITT subjects",(57.9) %
same,"Pain relief at 30 minutes postdose, Stratified Percentage Difference (Zavegepant-Placebo)",[12],1.9%
same,"Pain relief at 60 minutes postdose, Stratified Percentage Difference (Zavegepant-Placebo)",[12],5.1%
same,"Rescue medication use within 24 hours postdose, Stratified Percentage Difference (Zavegepant-Placebo)",[12],−2.4%
same,"Sustained pain freedom from 2 to 24 hours postdose, Stratified Percentage Difference (Zavegepant-Placebo)",[12],5.3%
same,"Sustained pain freedom from 2 to 48 hours postdose, Stratified Percentage Difference (Zavegepant-Placebo)",[12],5.5%
same,"Sustained pain relief from 2 to 24 hours postdose, Stratified Percentage Difference (Zavegepant-Placebo)",[12],8.0%
same,"Sustained pain relief from 2 to 48 hours postdose, Stratified Percentage Difference (Zavegepant-Placebo)",[12],7.4%
same,"Pain relief at 2 hours postdose, Stratified Percentage Difference (Zavegepant-Placebo)","zavegepant 5 mg vs placebo, mITT, stratified by prophylactic migraine medication use, CMH weighting",4.2%
same,"Return to normal function at 30 minutes postdose, Stratified Percentage Difference (Zavegepant-Placebo)",[13],3.4%
same,"Return to normal function at 60 minutes postdose, Stratified Percentage Difference (Zavegepant-Placebo)",[13],5.5%
same,"Return to normal function at 2 hours postdose, Stratified Percentage Difference (Zavegepant-Placebo)",[13],4.3%
same,"Pain relapse from 2 to 48 hours postdose, Stratified Percentage Difference (Zavegepant-Placebo)","zavegepant 5 mg vs placebo, subjects with pain freedom at 2 hours postdose, CMH weighting",−18.9%
same,"Nausea freedom at 2 hours postdose, Stratified Percentage Difference (Zavegepant-Placebo)",[14],1.8%
same,"Phonophobia freedom at 2 hours postdose, Stratified Percentage Difference (Zavegepant-Placebo)",[14],10.1%
same,"Photophobia freedom at 2 hours postdose, Stratified Percentage Difference (Zavegepant-Placebo)",[14],4.6%
same,"Pain relief at 30 minutes postdose, n/N (%)","zavegepant 5 mg, mITT subjects",(26.6) %
same,"Pain relief at 60 minutes postdose, n/N (%)","zavegepant 5 mg, mITT subjects",(47.0) %
same,"Rescue medication use within 24 hours postdose, n/N (%)","zavegepant 5 mg, mITT subjects",(24.9) %
same,"Sustained pain freedom from 2 to 24 hours postdose, n/N (%)","zavegepant 5 mg, mITT subjects",(14.2) %
same,"Sustained pain freedom from 2 to 48 hours postdose, n/N (%)","zavegepant 5 mg, mITT subjects",(12.9) %
same,"Sustained pain relief from 2 to 24 hours postdose, n/N (%)","zavegepant 5 mg, mITT subjects",(43.7) %
same,"Sustained pain relief from 2 to 48 hours postdose, n/N (%)","zavegepant 5 mg, mITT subjects",(40.1) %
same,"Return to normal function at 30 minutes postdose, n/N (%)",[15],(8.8) %
same,"Return to normal function at 60 minutes postdose, n/N (%)",[15],(22.6) %
same,"Return to normal function at 2 hours postdose, n/N (%)",[15],(31.7) %
